The target of one data set is T1, 20566-LC (NanA-DSM20566) (Streptococcus pneumoniae, UniProt P62576).
T1 construct: lectin (CBM40) + catalytic domains, residues 116-833, N-terminal 6xHis (pET-28a), ~84 kDa, E. coli BL21(DE3), cobalt column
Kind of data set: chemiluminescence NA-Star assay. It is filed as biochemical. As to conditions: read-out: 50% inhibitory concentration (μM) ^a / DANA. An excerpt:
chemiluminescence NA-Star assay on 20566-LC (NanA-DSM20566)

Data set [1] has as its target T2, 20566-CC (NanA-DSM20566) (Streptococcus pneumoniae, UniProt P62576).
T2 construct: catalytic domain only, residues 311-833 (523 aa), N-terminal 6xHis (pET-28a), ~62 kDa, E. coli BL21(DE3); catalytic domain printed as identical to CF8919
Kind of data set: chemiluminescence NA-Star assay. It is filed as biochemical. Conditions: read-out: 50% inhibitory concentration (μM) ^a / DANA. An excerpt: chemiluminescence NA-Star assay on 20566-CC (NanA-DSM20566)

Data set [2] concerns the target T3, 20566-CC (NanA-DSM20566) (Streptococcus pneumoniae, UniProt P62576, I442V). Kind of data set: biochemical.
The target of data set [3] is 20566-CC (NanA-DSM20566) (Streptococcus pneumoniae, UniProt P62576, G441A/I442V/K440R). Kind of data set: biochemical.
Data set [4] has as its target 20566-CC (NanA-DSM20566) (Streptococcus pneumoniae, UniProt P62576, DEL440-442). Conditions: read-out: 20566-CC-ΔKGI; MES, 4 mM CaCl2, pH 6.5, room temperature.
The target of data set [5] is 20566-CC (NanA-DSM20566) (Streptococcus pneumoniae, UniProt P62576, K440R/G441A/I442V). As to conditions: read-out: 20566-CC-RAV; MES, 4 mM CaCl2, pH 6.5, room temperature.
Data set [6] has as its target T3, 20566-CC (NanA-DSM20566). Conditions: read-out: 20566-CC-KGV; MES, 4 mM CaCl2, pH 6.5, room temperature.
Data set [7] has as its system CC(=O)N[C@H]1[C@H]([C@H](O)[C@H](O)CO)O[C@@](Oc2ccc3c(C)cc(=O)oc3c2)(C(=O)O)C[C@@H]1O. Kind of data set: purified protein. As to conditions: pH 6.5.
Data set [8] has the same test system. Kind of data set: purified protein. Conditions: pH 6.5. This is another data set of the same source.

As to `CC(=O)N[C@H]1[C@H]([C@H](O)[C@H](O)CO)OC(C(=O)O)=C[C@@H]1O` [DANA, 2,3-dehydro-2-deoxy-N-acetylneuraminic acid], the IC50 was 3.8 ± 0.5 µM at 20566-LC (NanA-DSM20566), 2.35 ± 0.16 µM on 20566-CC (NanA-DSM20566) [1], 4.56 ± 0.71 µM against 20566-CC (NanA-DSM20566) [2] and 0.92 ± 0.71 µM at 20566-CC (NanA-DSM20566) [3].

`CC(=O)N[C@H]1[C@H]([C@H](O)[C@H](O)CO)O[C@@](Oc2ccc3c(C)cc(=O)oc3c2)(C(=O)O)C[C@@H]1O` [MUNANA, 2′-(4-methylumbelliferyl)-a-D-N-acetylneuraminic acid]: the Km was greater than 1000 µM at 20566-CC (NanA-DSM20566) [4], 17.9 ± 1.07 µM on 20566-CC (NanA-DSM20566) [5] and 32.8 ± 4.78 µM at 20566-CC (NanA-DSM20566) [6].

As to (Streptococcus pneumoniae R6), the Km in data set [7] turned out to be 25.97 ± 2.19 µM; in data set [8], 24.50 ± 2.71 µM.

The record behind these values is paper PMC4850393, “Sequence diversity of NanA manifests in distinct enzyme kinetics and inhibitor susceptibility” (Scientific Reports, 2016).
